From paper PMC10577379, “Isolation of anticancer bioactive secondary metabolites from the sponge-derived endophytic fungi Penicillium sp. and in-silico computational docking approach” (Frontiers in Microbiology, 2023)
≈ marks a conversion by molar mass, not a printed value. Entries after “also recorded” stand apart in the source; their conditions may differ. Where two headings read alike, the source gives them in different places.

How the values were obtained:
[1] = test system: MCF-10A; test: Cytotoxicity, Cell Counting Kit (CCK-8), normal cell line; assay type: cell-based; settings: Homo sapiens, CCK-8, n = 3, unit from Table S1 title
Method: (§1) Cytotoxicity was assessed using the Cell Counting Kit (CCK-8) (Dojindo, Japan) method adopted by Wang et al. ([2015a]). Cancer cell lines used in this study included K562, MCF-7, A549, HuH-7, H1975, HeLa, HL7702, DU145, HL60, MOLT-4. Additionally, a normal cell line, MCF10A, was included. All cell lines were procured from Shanghai Cell Bank, Chinese Academy of Sciences. Cells were routinely grown and maintained in RPMI or DMEM media with 10% Fetal Bovine Serum and 1% penicillin/streptomycin. Various concentrations of seven isolated compounds from Penicillium sp. were dissolved in 100% DMSO with a maximum concentration of 200 μg/mL and serially diluted to a final 0.1% DMSO concentration to treat cells for […]. Taxol was used as a positive control, and DMSO was used as a negative control. Cytotoxicity screening assay experiments were conducted in triplicate to obtain the standard error ± mean value. The percentage of cytotoxicity (IC50) alongside the selectivity index was then calculated using the formula:
(§2) IC50=(absorbance of the cell without treatment -absorbance of cells with treatment/ absorbance of the cell without treatment)× 100
(§3) Selective index (SI)=CC50value for normal cells/IC50for cancer cells

[2] = test system: Mycobacterium tuberculosis H37Ra (ATCC 25177); test: Anti-tuberculosis assay (MIC); assay type: cell-based; settings: M. tuberculosis H37Ra, read-out: Antitubercular activity MIC
Method: The H37Ra strain of Mycobacterium tuberculosis (ATCC 25177) purchased from the American Type Culture Collection (ATCC) was used in the anti-TB bioassay. The anti-tuberculosis assay was based on the one used by Wang et al. ([2015b]). INH (Isoniazid) was used as the positive control, and DMSO was used as a negative control. For the minimum inhibitory concentration (MIC) analysis, 100 μl of Mycobacterium suspension was prepared in a 96-well microtiter plate. A total of […] of double serial dilution of various concentrations of 7 isolated compounds (from 0.08 to 20 μg/mL) alongside the positive control isoniazid (1 to 417 μg/mL) was added to the well.

[3] = test system: K562 cell lines; set-up: method as in Hong et al., 2007; settings: averufin from Penicillium flavidorsum SHK1-27; ref Hong et al., 2007; cited from earlier work
[4] = test system: cancer cell lines; test: Anticancer screening, whole cell line panel; assay type: cell-based; settings: in-vitro screening, tested cell lines, in words
Method: as §1, §2, §3

[5] = test system: HL60 cells; test: Cytotoxicity, Cell Counting Kit (CCK-8); assay type: cell-based, human; settings: for IC50: Homo sapiens; for anticancer activity toward HL60 cells: in words
Method: as §1, §2, §3

[6] = test system: Huh-7; test: Cytotoxicity, Cell Counting Kit (CCK-8); assay type: cell-based; settings: Homo sapiens, CCK-8, mean ± SD, n = 3, unit from b62 and Table S1 title (there headed MIC)
Method: as §1, §2, §3

[7] = test system: MCF-7; test: Cytotoxicity, Cell Counting Kit (CCK-8); assay type: cell-based; settings: Homo sapiens, MCF7; CCK-8, mean ± SD, n = 3; unit from b62 and Table S1 title (there headed MIC)
Method: as §1, §2, §3

[8] = test system: MOLT-4; test: Cytotoxicity, Cell Counting Kit (CCK-8); assay type: cell-based; settings: Homo sapiens, CCK-8, mean ± SD, n = 3, unit from b62 and Table S1 title (there headed MIC)
Method: as §1, §2, §3

[9] = test system: H1975; test: Cytotoxicity, Cell Counting Kit (CCK-8); assay type: cell-based; settings: Homo sapiens, NCI-H1975; CCK-8, mean ± SD, n = 3; unit from b62 and Table S1 title (there headed MIC)
Method: as §1, §2, §3

[10] = test system: HeLa; test: Cytotoxicity, Cell Counting Kit (CCK-8); assay type: cell-based; settings: Homo sapiens, CCK-8, mean ± SD, n = 3, unit from b62 and Table S1 title (there headed MIC)
Method: as §1, §2, §3

[11] = test system: DU145; test: Cytotoxicity, Cell Counting Kit (CCK-8); assay type: cell-based; settings: Homo sapiens, DU-145; CCK-8, mean ± SD, n = 3; unit from b62 and Table S1 title (there headed MIC)
Method: as §1, §2, §3

[12] = test system: A549; test: Cytotoxicity, Cell Counting Kit (CCK-8); assay type: cell-based; settings: Homo sapiens, CCK-8, mean ± SD, n = 3, unit from b62 and Table S1 title (there headed MIC)
Method: as §1, §2, §3

[13] = test system: HL7702; test: Cytotoxicity, Cell Counting Kit (CCK-8); assay type: cell-based; settings: Homo sapiens, L02; CCK-8, mean ± SD, n = 3; unit from b62 and Table S1 title (there headed MIC)
Method: as §1, §2, §3

[14] = test system: K562; test: Cytotoxicity, Cell Counting Kit (CCK-8); assay type: cell-based; settings: Homo sapiens, CCK-8, mean ± SD, n = 3, unit from b62 and Table S1 title (there headed MIC)
Method: as §1, §2, §3

[15] = test system: SGC-7901 cell line; set-up: method as in Yang et al., 2009; settings: in words; ref Yang et al., 2009; cited from earlier work
[16] = test system: Staphylococcus aureus (CGMCC 1.230); test: Antimicrobial assay (MIC); assay type: cell-based; settings: CGMCC1, 37°C, 24 h, read-out: MIC S. aureus
[17] = test system: Escherichia coli (CGMCC 1.2385); test: Antimicrobial assay (MIC); assay type: cell-based; settings: CGMCC1, 37°C, 24 h
[18] = HL-60, CCK-8, mean ± SD, n = 3, unit from b62 and Table S1 title (there headed MIC), read-out: IC50 HL60

| Structure (SMILES) | IC50 [1] [µM] | MIC [2] [µM] | IC50 [5, 18] [µM] | IC50 [6] [µM] | IC50 [7] [µM] | IC50 [8] [µM] | IC50 [9] [µM] | IC50 [10] [µM] | IC50 [11] [µM] | IC50 [12] [µM] | IC50 [13] [µM] | IC50 [14] [µM] | also measured |
| --- | --- | --- | --- | --- | --- | --- | --- | --- | --- | --- | --- | --- | --- |
| CC12CCCC(O1)c1c(cc3c(c1O)C(=O)c1c(O)cc(O)cc1C3=O)O2 (stereo not drawn) [Compound 1, averufin] | ≥ 50 | > 50 | 1 | 3.13 ± 0.01 | 6.71 ± 0.01 | 5.77 ± 0.01 | 8.64 ± 0.01 | 8.11 ± 0.01 | 91.2 ± 0.01 | 76.1 ± 0.01 | 3.57 ± 0.01 | 17.4 ± 0.01 | MIC, antitumor activity toward K562 cell lines [3]: 72.4 µM (≈ 26.7 µg/mL); anticancer effect against cancer cell lines [4]: significant anticancer effect; IC50 ([5]; HL-60, read-out: IC50 concentration, HL60 cell lines): 1 µM; anticancer activity toward HL60 cells [5]: strong anticancer activity |
| CCCCC[C@@H](c1ccc(Oc2cc(C)cc(O)c2)cc1)c1c(O)cc2c(c1O)C(=O)c1cc(O)cc(O)c1C2=O [Compound 2, aspergilol-A] | – | > 50 | – | – | – | – | – | – | – | – | – | – | – |
| COC(=O)c1cc(O)cc(OC)c1C(=O)c1c(O)cc(C)cc1O [Compound 3, sulochrin] | – | > 50 | – | – | – | – | – | – | – | – | – | – | – |
| COc1cc(O)cc2c1C(=O)c1c(O)cc(C)cc1C2=O [Compound 5, methyl emodin] | ≥ 50 | > 50 | 13.2 ± 0.01 | 25.1 ± 0.01 | 54.3 ± 0.01 | 13.6 ± 0.01 | 43.5 ± 0.01 | 24.9 ± 0.01 | 101.4 ± 0.01 | 81.3 ± 0.01 | 67.2 ± 0.01 | 16.3 ± 0.01 | anticancer effect against cancer cell lines [4]: significant anticancer effect; also recorded: weak anticancer effect; anticancer activity toward HL60 cells [5]: moderate activity; anticancer effect against the SGC-7901 cell line [15]: moderate anticancer effect |
| Cc1cc(O)cc(Oc2cc(C)cc(O)c2)c1 [Compound 7, diorcinol] | – | > 50 | – | – | – | – | – | – | – | – | – | – | – |
| NNC(=O)c1ccncc1 [INH, Isoniazid, reference compound] | – | 3.98 (≈ 0.546 µg/mL) | – | – | – | – | – | – | – | – | – | – | – |
| CC(=O)O[C@H]1C(=O)[C@@]2(C)[C@H]([C@H](OC(=O)c3ccccc3)[C@]3(O)C[C@H](OC(=O)[C@H](O)[C@@H](NC(=O)c4ccccc4)c4ccccc4)C(C)=C1C3(C)C)[C@]1(OC(C)=O)CO[C@@H]1C[C@@H]2O [Taxol, reference compound] | ≥ 50 | – | 0.002 | 0.003 | 0.002 | 0.003 | 0.014 ± 0.01 | 0.003 | 0.015 ± 0.01 | 0.024 ± 0.01 | 0.003 | 0.003 | – |
| O=C(O)c1cn(C2CC2)c2cc(N3CCNCC3)c(F)cc2c1=O [ciprofloxacin, Ciprofloxacin] | – | – | – | – | – | – | – | – | – | – | – | – | MIC [16]: 2.96 µM (≈ 0.981 µg/mL); MIC [17]: 0.19 µM (≈ 0.063 µg/mL) |
